Reference: US20240041042A1, “1-(PYRIDYL)-5-AZINYLPYRAZOLE DERIVATIVES, AND THEIR USE FOR CONTROL OF UNDESIRED PLANT GROWTH” (Bayer Aktiengesellschaft, priority 2020, published 2024)
Where two headings read alike, the source gives them in different places.

Experiments:
Assay type in all cases: in vivo
[1] = test system: Verconica persica (VERPE); experiment: Pre-emergence herbicidal action against VERPE; conditions: dosage 320 g/ha
Procedure, shortened: (§1)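 Pre-emergence soil-surface spray of compound, formulated as wettable powder or emulsion concentrate, in aqueous suspension or emulsion with 0.5% additive (600 l/ha; rate 320 g/ha or less). Activity rated visually after roughly 3 weeks in the greenhouse as a percentage of untreated controls, 0% meaning no difference.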

[2] = test system: Amaranthus retroflexus (AMARE); experiment: Pre-emergence herbicidal action against AMARE; conditions: visual scoring after about 3 weeks vs untreated controls
Procedure, shortened: as §1

[3] = test system: Echinochloa crus-galli (ECHCG); experiment: Post-emergence herbicidal action against ECHCG
Procedure, shortened: (§2)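 Post-emergence greenhouse spray, one-leaf stage, 600 l/ha water plus 0.5% additive; WP or EC formulations; application rates 320 g/ha or lower. Visual % damage vs untreated controls at ~3 weeks.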

Oryza sativa (ORYSA) [4] = conditions: crop plant compatibility
Procedure, shortened: (§3)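 Test crops were treated 2 to 3 weeks after sowing, once they reached one leaf, by spraying compound in water with 0.5% additive at 600 l/ha. Visual scoring compared them with untreated controls roughly 3 weeks on, and appendices a, b and c denote different doses.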

Avena fatua (AVEFA) [5] = experiment: Pre-emergence herbicidal action against AVEFA; conditions: 320 g/ha, visual scoring after about 3 weeks vs untreated controls
Procedure, shortened: as §1

[6] = test system: Amaranthus retroflexus (AMARE); experiment: Post-emergence herbicidal action against AMARE
Procedure, shortened: as §2

[7] = test system: Abutilon theophrasti (ABUTH); experiment: Post-emergence herbicidal action against ABUTH; conditions: visual rating about 3 weeks after treatment vs untreated controls (100% = plants have died, 0% = like control plants)
Procedure, shortened: as §2

[8] = test system: Matricaria inodora (MATIN); experiment: Post-emergence herbicidal action against MATIN; conditions: dosage 320 g/ha
Procedure, shortened: as §2

[9] = test system: Alopecurus myosuroides (ALOMY); experiment: Post-emergence herbicidal action against ALOMY; conditions: visual rating about 3 weeks after treatment vs untreated controls (100% = plants have died, 0% = like control plants)
Procedure, shortened: as §2

[10] = test system: Alopecurus myosuroides (ALOMY); experiment: Pre-emergence herbicidal action against ALOMY; conditions: 320 g/ha; scored visually after about 3 weeks; 100% = plants have died
Procedure, shortened: as §1

Setaria viridis (SETVI) [11] = experiment: Post-emergence herbicidal action against SETVI; conditions: dosage 320 g/ha
Procedure, shortened: as §2

[12] = test system: Matricaria inodora (MATIN); experiment: Pre-emergence herbicidal action against MATIN; conditions: dosage 320 g/ha
Procedure, shortened: as §1

Viola tricolor (VIOTR) [13] = experiment: Pre-emergence herbicidal action against VIOTR
Procedure, shortened: as §1

[14] = test system: Polygonum convolvulus (POLCO); experiment: Post-emergence herbicidal action against POLCO
Procedure, shortened: as §2

[15] = test system: Polygonum convolvulus (POLCO); experiment: Pre-emergence herbicidal action against POLCO; conditions: dosage 320 g/ha
Procedure, shortened: as §1

Oryza sativa (ORYSA) [16] = conditions: pre-emergence, crop plant compatibility, in comparison to untreated controls
Procedure, shortened: (§4)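 Scoring: visual, % of untreated control, about 3 weeks after a pre-emergence application to the soil surface. Application used WP or EC formulations diluted in water with 0.5% additive at 600 l/ha; dosage levels are marked by suffixes a, b and c.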

Zea mays (ZEAMX) [17] = conditions: pre-emergence, crop plant compatibility, in comparison to untreated controls
Procedure, shortened: as §4

Viola tricolor (VIOTR) [18] = experiment: Post-emergence herbicidal action against VIOTR; conditions: 320 g/ha
Procedure, shortened: as §2

[19] = test system: Verconica persica (VERPE); experiment: Post-emergence herbicidal action against VERPE
Procedure, shortened: as §2

Avena fatua (AVEFA) [20] = experiment: Post-emergence herbicidal action against AVEFA; conditions: visual rating about 3 weeks after treatment
Procedure, shortened: as §2

Setaria viridis (SETVI) [21] = experiment: Pre-emergence herbicidal action against SETVI; conditions: dosage 320 g/ha
Procedure, shortened: as §1

Lolium rigidum (LOLRI) [22] = experiment: Post-emergence herbicidal action against LOLRI; conditions: dosage 320 g/ha
Procedure, shortened: as §2

Lolium rigidum (LOLRI) [23] = experiment: Pre-emergence herbicidal action against LOLRI; conditions: dosage 320 g/ha
Procedure, shortened: as §1

Zea mays (ZEAMX) [24] = test system: Zea mays (ZEAMX)
Procedure, shortened: as §3

[25] = test system: Pharbitis purpurea (PHBPU); experiment: Pre-emergence herbicidal action against PHBPU; conditions: dosage 320 g/ha
Procedure, shortened: as §1

[26] = test system: Echinochloa crus-galli (ECHCG); experiment: Pre-emergence herbicidal action against ECHCG; conditions: dosage 320 g/ha
Procedure, shortened: as §1

[27] = 80 g/ha, effect in comparison to untreated controls

SMILES | Pre-emergence action against VERPE in % [1] | Pre-emergence action against AMARE in % ([2]; 80 g/ha) | Pre-emergence action against AMARE in % ([2]; 320 g/ha) | Post-emergence action against ORYSA in % (Oryza sativa (ORYSA) [4]; [27]) | Pre-emergence action against AVEFA in % (Avena fatua (AVEFA) [5]) | Pre-emergence action against ALOMY [10] | Pre-emergence action against MATIN in % [12] | Pre-emergence action against VIOTR in % (Viola tricolor (VIOTR) [13]; 320 g/ha, Viola tricolor) | Pre-emergence action against VIOTR in % (Viola tricolor (VIOTR) [13]; dosage 80 g/ha) | Pre-emergence action against POLCO in % [15] | Pre-emergence action against ORYSA in % (Oryza sativa (ORYSA) [16]; 80 g/ha) | Pre-emergence action against ZEAMX in % (Zea mays (ZEAMX) [17]; 80 g/ha) | Post-emergence action against VERPE in % ([19]; dosage 80 g/ha) | Post-emergence action against AVEFA in % (Avena fatua (AVEFA) [20]; 80 g/ha) | Pre-emergence action against SETVI in % (Setaria viridis (SETVI) [21]) | also measured
CSCCOC(=O)COc1nn(-c2ccccn2)c(-c2ccc(F)nc2)c1Br [Example I-95] | 100% | 90% | 100% | 0% | 80% | 80% | 80% | 100% | 100% | 90% | 0% | 0% | 80% | 80% | 100% | Post-emergence action against ECHCG in % ([3]; dosage 320 g/ha): 90%; Post-emergence action against AMARE in % ([6]; 80 g/ha, visual rating about 3 weeks after treatment vs untreated controls (100% = plants have died, 0% = like control plants)): 80%; Post-emergence action against AMARE in % ([6]; 320 g/ha, visual rating about 3 weeks after treatment): 90%; Post-emergence action against ABUTH in % ([7]; 80 g/ha): 80%; Post-emergence action against ABUTH in % ([7]; 320 g/ha): 80%; Post-emergence action against MATIN in % [8]: 80%; Post-emergence action against ALOMY in % ([9]; 320 g/ha): 100%; Post-emergence action against SETVI in % (Setaria viridis (SETVI) [11]): 90%; Post-emergence action against POLCO in % ([14]; dosage 80 g/ha): 80%; Post-emergence action against POLCO in % ([14]; dosage 320 g/ha): 80%; Pre-emergence action against ORYSA in % (Oryza sativa (ORYSA) [16]; 320 g/ha): 0%; Pre-emergence action against ZEAMX in % (Zea mays (ZEAMX) [17]; 320 g/ha): 0%; Post-emergence action against VIOTR in % (Viola tricolor (VIOTR) [18]): 80%; Post-emergence action against VERPE in % ([19]; 320 g/ha, VERPE): 80%; Post-emergence action against AVEFA in % (Avena fatua (AVEFA) [20]; 320 g/ha): 80%; Post-emergence action against LOLRI in % (Lolium rigidum (LOLRI) [22]): 80%
CCOC(=O)COc1nn(-c2ncccc2Cl)c(-c2ccc(F)nc2)c1Br [Example I-23] | 90% | 90% | 100% | 10% | 90% | 100% | 90% | 100% | 90% | 90% | 10% | 10% | 80% | 90% | 100% | Pre-emergence action against LOLRI in % (Lolium rigidum (LOLRI) [23]): 100%; Post-emergence action against ECHCG in % ([3]; dosage 80 g/ha): 80%; Post-emergence action against ORYSA in % (Oryza sativa (ORYSA) [4]; 20 g/ha, effect vs untreated controls): 0%; Post-emergence action against ZEAMX in % (crop plant compatibility) (Zea mays (ZEAMX) [24]; 20 g/ha, ZEAMX, effect in comparison to untreated controls): 0%; Post-emergence action against ZEAMX in % (Zea mays (ZEAMX) [24]; crop plant compatibility, 80 g/ha, effect vs untreated controls): 10%; Pre-emergence action against PHBPU in % [25]: 90%; Post-emergence action against ALOMY in % ([9]; 80 g/ha): 90%; Pre-emergence action against ECHCG in % [26]: 100%
